Laboratory results from PMC7604414, “Favipiravir at high doses has potent antiviral activity in SARS-CoV-2−infected hamsters, whereas hydroxychloroquine lacks activity” (Proceedings of the National Academy of Sciences of the …, 2020).

What was measured:
SARS-CoV-2 [1] = tested on: SARS-CoV-2; design: species or system Syrian hamsters; details: hamster, in vivo
SARS-CoV-2 [2] = tested on: SARS-CoV-2; design: method as in PMID 33741945; details: upon favipiravir treatment; cited from earlier work

## NC(=O)c1nc(F)c[nH]c1=O [favipiravir]
SARS-CoV-2 [1]
  increase in mean virus variants vs untreated hamsters: 3.2 fold
SARS-CoV-2 [2]
  increase of mean number of mutations in the viral RNA, factor: more than three
